The values below come from ChEMBL document CHEMBL4665833, “Systematic Study of the Glutathione Reactivity of N-Phenylacrylamides: 2. Effects of Acrylamide Substitution” (J Med Chem, 2020).

What all share (type): ADME
A short description of data set [1]: GSH reactivity in pH 7.4 phosphate buffer assessed as change in gibbs free energy at 1 uM in presence of glutathione measured up to 120 mins by LC/MS analysis. As to conditions: pH 7.4, 2 h.
Data set [2] in a line: GSH reactivity in pH 7.4 phosphate buffer assessed as half life at 1 uM in presence of glutathione measured up to 120 mins by LC/MS analysis. The note with it: phosphate buffer with glutathione.
Data set [3] can be described thus: GSH reactivity in pH 7.4 phosphate buffer assessed as pseudo first-order rate constant at 1 uM in presence of glutathione measured up to 120 mins by LC/MS analysis. The note with it: pH 7.4, 2 h.

`C=C(C(=O)Nc1ccccc1)C(F)(F)F`: in data set [1], the deltaG worked out at 22.6 kcal/mol.
The same measure, in the same setting: the result for `O=C(/C=C/C(F)F)Nc1ccccc1` reads 23.3 kcal/mol.
On to `O=C(/C=C/CN1CCCC1)Nc1ccccc1`, for which the deltaG in data set [1] came out at 24.1 kcal/mol.
Still for that read-out and setting: the result for `O=C(/C=C/CN1CC(F)(F)C(F)(F)C1)Nc1ccccc1` reads more than 24.7 kcal/mol.
Regarding `C=C(Cl)C(=O)Nc1ccccc1`, the half-life – broadly, the time in which the quantity being followed falls by half – at 1 µM in data set [2] turned out to be 0.05 h. Also, the deltaG in data set [1] came to 21.6 kcal/mol. Moreover, the K in data set [3] is recorded as 231 10^-3/min.
`CN(C)C/C=C/C(=O)Nc1ccccc1`: the deltaG in data set [1] stood at 23.9 kcal/mol.
In the case of `O=C(/C=C/CN1CC(F)C1)Nc1ccccc1`, the K in data set [3] was < 1.35 10^-3/min.
In the case of `C=C(CN(C)C)C(=O)Nc1ccccc1`, the deltaG in data set [1] is less than 21.4 kcal/mol.
Same read-out and setting: under `CCN(CC)C/C=C/C(=O)Nc1ccccc1` stands 24.1 kcal/mol.
As for `CN(C/C=C/C(=O)Nc1ccccc1)CCF`, the half-life at 1 µM in data set [2] stood at 5.43 h. In addition, the K in data set [3] is listed as 2.13 10^-3/min.
For `CN(C)CC/C=C/C(=O)Nc1ccccc1`, the deltaG in data set [1] is 24.7 kcal/mol.
On the same count and under the same terms, under `C=CC(=O)Nc1ccccc1` stands 24.1 kcal/mol.
